# Experimental data reported in ChEMBL document CHEMBL3885861, “Open TG-GATES”.
# Species on record: Rattus norvegicus
# Assay: Open TG-GATES - Regimen: Single
# Format: toxicity, organism-based, Sprague-Dawley
# Parameters: regimen Single, gender Male, age 6 weeks
# Details: in vivo, po, 30 mg/kg, route gavage, dose level Low; for APTT / Bas / Eos / Fbg / Hb / Ht / Lym / MCH / MCHC / MCV / Mono / Neu / PT / Plat / RBC / Ret / WBC: tissue Blood; for KIDNEY_L / KIDNEY_R / KIDNEY_TOTAL: tissue Kidney; for LIVER: tissue Liver; for A/G / ALP / ALT / AST / BUN / CRE / Ca / Cl / DBIL / GLC / IP / K / LDH / Na / PL / RALB / TBIL / TC / TG / TP / gamma-GTP: tissue Plasma
compound,measurement,setting,value
NC(=O)N/N=C/c1ccc([N+](=O)[O-])o1 [NITROFURAZONE],TERMINAL_BW,3 h,181.5 g
same,APTT,3 h,16.4 s
same,Bas,3 h,0.2%
same,Eos,3 h,0.8%
same,Fbg,3 h,262.8 mg/dL
same,Hb,3 h,13 g/dL
same,Ht,3 h,40.6%
same,Lym,3 h,68.6%
same,MCH,3 h,21.7 pg
same,MCHC,3 h,31.9%
same,MCV,3 h,67.8 fL
same,Mono,3 h,3.6%
same,Neu,3 h,26%
same,PT,3 h,14.8 s
same,Plat,3 h,116.3 x10_4/uL
same,RBC,3 h,598.8 x10_4/ul
same,Ret,3 h,10.6%
same,WBC,3 h,92.5 x10_2/uL
same,KIDNEY_L,3 h,0.8 g
same,KIDNEY_R,3 h,0.8 g
same,KIDNEY_TOTAL,3 h,1.6 g
same,LIVER,3 h,8.1 g
same,A/G,3 h,0.9
same,ALP,3 h,1547.4 IU/L
same,ALT,3 h,43 IU/L
same,AST,3 h,76.8 IU/L
same,BUN,3 h,10.8 mg/dL
same,CRE,3 h,0.2 mg/dL
same,Ca,3 h,11.3 mg/dL
same,Cl,3 h,106.4 meq/L
same,DBIL,3 h,0.01 mg/dL
same,GLC,3 h,175 mg/dL
same,IP,3 h,9.7 mg/dL
same,K,3 h,4 meq/L
same,LDH,3 h,47.2 IU/L
same,Na,3 h,142.8 meq/L
same,PL,3 h,145.4 mg/dL
same,RALB,3 h,2.4 g/dL
same,TBIL,3 h,0.054 mg/dL
same,TC,3 h,81 mg/dL
same,TG,3 h,48 mg/dL
same,TP,3 h,5.2 g/dL
same,gamma-GTP,3 h,1.6 IU/L
same,TERMINAL_BW,6 h,178.8 g
same,APTT,6 h,16 s
same,Bas,6 h,0%
same,Eos,6 h,0.8%
same,Fbg,6 h,253.2 mg/dL
same,Hb,6 h,12.8 g/dL
same,Ht,6 h,39.9%
same,Lym,6 h,71%
same,MCH,6 h,21.3 pg
same,MCHC,6 h,32.1%
same,MCV,6 h,66.5 fL
same,Mono,6 h,2.8%
same,Neu,6 h,24%
same,PT,6 h,14.6 s
same,Plat,6 h,116.1 x10_4/uL
same,RBC,6 h,599.8 x10_4/ul
same,Ret,6 h,10.6%
same,WBC,6 h,83.2 x10_2/uL
same,KIDNEY_L,6 h,0.8 g
same,KIDNEY_R,6 h,0.8 g
same,KIDNEY_TOTAL,6 h,1.6 g
same,LIVER,6 h,7.6 g
same,A/G,6 h,0.9
same,ALP,6 h,1430.2 IU/L
same,ALT,6 h,43.6 IU/L
same,AST,6 h,76.8 IU/L
same,BUN,6 h,7.8 mg/dL
same,CRE,6 h,0.2 mg/dL
same,Ca,6 h,11 mg/dL
same,Cl,6 h,105 meq/L
same,DBIL,6 h,0.01 mg/dL
same,GLC,6 h,167.4 mg/dL
same,IP,6 h,10.3 mg/dL
same,K,6 h,4 meq/L
same,LDH,6 h,52.6 IU/L
same,Na,6 h,141 meq/L
same,PL,6 h,139 mg/dL
same,RALB,6 h,2.4 g/dL
same,TBIL,6 h,0.062 mg/dL
same,TC,6 h,83.6 mg/dL
same,TG,6 h,33.2 mg/dL
same,TP,6 h,5.1 g/dL
same,gamma-GTP,6 h,1.6 IU/L
same,TERMINAL_BW,9 h,179 g
same,APTT,9 h,16 s
same,Bas,9 h,0%
same,Eos,9 h,1%
same,Fbg,9 h,264.6 mg/dL
same,Hb,9 h,12.7 g/dL
same,Ht,9 h,39.3%
same,Lym,9 h,76.6%
same,MCH,9 h,21.1 pg
same,MCHC,9 h,32.4%
same,MCV,9 h,65.3 fL
same,Mono,9 h,2.8%
same,Neu,9 h,19%
same,PT,9 h,14.9 s
same,Plat,9 h,105.2 x10_4/uL
same,RBC,9 h,601.4 x10_4/ul
same,Ret,9 h,10.5%
same,WBC,9 h,60.9 x10_2/uL
same,KIDNEY_L,9 h,0.8 g
same,KIDNEY_R,9 h,0.8 g
same,KIDNEY_TOTAL,9 h,1.7 g
same,LIVER,9 h,7.2 g
same,A/G,9 h,0.9
same,ALP,9 h,1367.6 IU/L
same,ALT,9 h,42.8 IU/L
same,AST,9 h,76 IU/L
same,BUN,9 h,7.4 mg/dL
same,CRE,9 h,0.1 mg/dL
same,Ca,9 h,10.8 mg/dL
same,Cl,9 h,105.6 meq/L
same,DBIL,9 h,0.016 mg/dL
same,GLC,9 h,163.6 mg/dL
same,IP,9 h,10.3 mg/dL
same,K,9 h,3.7 meq/L
same,LDH,9 h,48.8 IU/L
same,Na,9 h,141.4 meq/L
same,PL,9 h,133.2 mg/dL
same,RALB,9 h,2.4 g/dL
same,TBIL,9 h,0.064 mg/dL
same,TC,9 h,72.4 mg/dL
same,TG,9 h,40.4 mg/dL
same,TP,9 h,5.2 g/dL
same,gamma-GTP,9 h,1.2 IU/L
same,TERMINAL_BW,24 h,197.2 g
same,APTT,24 h,15.8 s
same,Bas,24 h,0.2%
same,Eos,24 h,0.8%
same,Fbg,24 h,260 mg/dL
same,Hb,24 h,12.3 g/dL
same,Ht,24 h,38%
same,Lym,24 h,79%
same,MCH,24 h,21.5 pg
same,MCHC,24 h,32.3%
same,MCV,24 h,66.5 fL
same,Mono,24 h,3.6%
same,Neu,24 h,16%
same,PT,24 h,14.8 s
same,Plat,24 h,112 x10_4/uL
same,RBC,24 h,571.2 x10_4/ul
same,Ret,24 h,10.6%
same,WBC,24 h,87.3 x10_2/uL
same,KIDNEY_L,24 h,0.9 g
same,KIDNEY_R,24 h,0.9 g
same,KIDNEY_TOTAL,24 h,1.8 g
same,LIVER,24 h,9.3 g
same,A/G,24 h,0.9
same,ALP,24 h,1764.6 IU/L
same,ALT,24 h,50.2 IU/L
same,AST,24 h,75.2 IU/L
same,BUN,24 h,14.6 mg/dL
same,CRE,24 h,0.2 mg/dL
same,Ca,24 h,11.4 mg/dL
same,Cl,24 h,104.6 meq/L
same,DBIL,24 h,0.014 mg/dL
same,GLC,24 h,179.2 mg/dL
same,IP,24 h,9.1 mg/dL
same,K,24 h,4 meq/L
same,LDH,24 h,64.2 IU/L
same,Na,24 h,142 meq/L
same,PL,24 h,145.6 mg/dL
same,RALB,24 h,2.5 g/dL
same,TBIL,24 h,0.048 mg/dL
same,TC,24 h,80.2 mg/dL
same,TG,24 h,62.6 mg/dL
same,TP,24 h,5.4 g/dL
same,gamma-GTP,24 h,1 IU/L
